Data set [1] is described as follows: DPPH radical scavenging (antioxidant) assay. To be noted: for Percentage of inhibited DPPH (2 h): mean ± SEM. As to the method:
The antioxidant capacity of the selected Se compound was tested using the DPPH assay described by Astrain-Redin. The compound was tested at three different concentrations (0.06, 0.03, and 0.015 mg/mL) and we used two positive controls: ascorbic acid (ASC) and trolox (TRO). A solution of DPPH (2,2-diphenyl-1-picrylhydrazyl) in methanol (0.04 mg/mL, preserved in the dark) was prepared and 100 μL of this stock solution was added to 100 μL of tested compound solution. The color change, from purple (radical) to yellow (reduced), was measured at 517 nm at different time points (0, 5, 15, 30, 60, 90, and 120 min). All measurements were carried out in triplicate and recorded on a BioTek PowerWave XS spectrophotometer (Biotek). Data were collected using BioTek Gen5Microplate reader and Imager software (Agilent, version 3.12). Results are expressed as a percentage of inhibited DPPH ± standard error of the mean (SEM), calculated using the following formula %inhibitedDPPH=Acontrol−Asample/Acontrol×100 where A control refers to the absorbance of the negative control and A sample refers to the absorbance of the tested compound.
For orientation: The DPPH test is a chemical assay of radical scavenging.

Data set [2] deals with T. cruzi CAI/72 strain. Briefly: Antiparasitic activity in C2C12 cells infected with T. cruzi CAI/72 (image-based assay). The format is cell-based. To be noted: Trypanosoma cruzi, read-out: Anti-Tc CAI/72 activity (%).
Data set [3] in a line: Host cell cytotoxicity (C2C12 viability). The class given is cell-based, Mouse. As to conditions: mouse; for viability at 48 h, 10 µM: < 50% viability considered cytotoxic; for CC50 at 48 h: viability calculated at 10 μM. The procedure, abridged: (§1)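 Mouse C2C12 myoblasts co-seeded with CAI/72 trypomastigotes (10:1 parasite:cell) on compound, 48 h at 37 °C, 5% CO2. DAPI-stained fixed cells imaged; parasites per host cell normalized to 40 μM BNZ and DMSO. EC50 and C2C12 viability from dose-response curves, three biological replicates in triplicate.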

Another data set has as its target T1, recombinant Cz (cruzain) (Trypanosoma cruzi, UniProt P25779).
T1 construct: Cz was expressed and purified as described in da Silva et al; made in house
The data set is described as follows: biochemical. As to conditions: for SICz: ratio between IC50 hCatL and IC50 Cz; for Cz inhibition (%): 10 µM; for inhibition at 10 µM: read-out: Cz inhibition (%), 10 µM. An outline of the steps:
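Cruzain (1 nM) was preincubated 10 min with compound in 0.1 M sodium acetate pH 5.5, 1 mM DTT, 0.01% Triton X-100, then 2.5 μM Z-FR-AMC (final) was added. Fluorescence (360/460 nm) was read for 10 min at 25 °C and normalized to DMSO.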

Data set [4] deals with T2, Recombinant human cathepsin L (hCatL) (Homo sapiens, UniProt P07711).
T2 construct: purchased R&D Systems 952-CY
The data set is described as follows: Human cathepsin L inhibition assay (Z-FR-AMC substrate). The format is biochemical. As to the method:
Compounds were screened at 10 μM. […] The experiment was performed for 30 min.
All experiments were accomplished in a 384-well black microplate, using a Synergy HTX (Biotek) plate reader at 25 °C with absorption/emission wavelengths of 360/460 nm. All assays were performed in triplicate wells and DMSO was used as a vehicle control. Enzymatic activity was measured and normalized to DMSO controls, and the inhibitor E-64 (10 μM) was used as a positive control for all assays. All experiments were performed in triplicates, with at least two independent assays (n = 6 data points). IC50 values were determined through nonlinear regression. Obtained data were treated and analyzed using GraphPad Prism 9.0 (GraphPad Software, La Jolla, California).

The subject of data set [5] is Cz isolated and purified from Tulahuen 2 strain epimastigotes. The arrangement: method as in Jasinski et al. As to conditions: different assay conditions and enzyme origin; ref Jasinski et al.; cited from earlier work.
For data set [6], the system named is T. cruzi CAI/72 strain. Briefly: Antiparasitic activity in C2C12 cells infected with T. cruzi CAI/72 (image-based assay). The format is cell-based.
The nature of data set [7]: Compound stability (authors' observation). The format is physicochemical. As to conditions: reason for discontinuation.
A further data set has as its system C2C12 cells. Briefly: Host cell cytotoxicity (C2C12 viability). The format is cell-based, Mouse. To be noted: 10 µM; < 50% viability considered cytotoxic. An outline of the steps: as §1
[8] abbreviates: C2C12 myoblast cells infected with trypomastigotes.
The mark [9] stands for this setting: 10 µM, C2C12 infected cells, read-out: Anti-Tc CAI/72 activity (%).

Values joined by “and” are separate entries in the source; they are usually repeats but may differ in a detail not shown here. Identical values can stand only once. “Also recorded” adds a separate entry of the source. Like-named read-outs stand apart in the source and are kept apart here.

T1 sequence (P25779 123-337 limits assumed): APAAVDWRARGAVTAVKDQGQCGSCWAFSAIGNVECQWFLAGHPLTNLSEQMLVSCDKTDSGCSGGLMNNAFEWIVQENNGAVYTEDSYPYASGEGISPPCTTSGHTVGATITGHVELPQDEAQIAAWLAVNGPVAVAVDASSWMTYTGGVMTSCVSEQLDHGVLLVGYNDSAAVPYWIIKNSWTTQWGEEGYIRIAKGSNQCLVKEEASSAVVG
T2 sequence (P07711 114-333): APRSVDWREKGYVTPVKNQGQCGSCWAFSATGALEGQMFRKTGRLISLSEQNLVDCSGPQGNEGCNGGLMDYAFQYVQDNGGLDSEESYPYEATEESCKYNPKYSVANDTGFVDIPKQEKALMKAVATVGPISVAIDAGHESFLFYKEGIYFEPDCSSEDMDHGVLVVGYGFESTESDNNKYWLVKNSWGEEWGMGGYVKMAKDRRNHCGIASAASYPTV

Turning to `O=C1O[C@H]([C@@H](O)CO)C(O)=C1O` [ASC, ascorbic acid], the “Percentage of inhibited DPPH (2 h)” value was 80,33 ± 0,33% in [1] (0,03 mg/ml), 80,33 ± 0,67% in data set [1] (0,06 mg/ml) and 65,33 ± 2,03% in data set [1] (0,015 mg/ml). In data set [1] (0.015 mg/mL), the “time to reach the plateau of the DPPH kinetic curve” value is listed as 0 min.

The term viability denotes a read-out of living cells in per cent, often relative to untreated cells. As usually defined, the CC50 is the concentration giving 50% cytotoxicity. For `CN1CCN(C(=O)N[C@@H](Cc2ccccc2)C(=O)N[C@H](/C=C/S(=O)(=O)c2ccccc2)CCc2ccccc2)CC1` [Compound K777, reference compound], in the data set with T. cruzi CAI/72 strain [2], the inhibition at 3 µM worked out at 61%. Also, in data set [3] (setting [8]), the viability at 48 h, 10 µM is over 100% and the CC50 at 48 h is over 10 µM. In addition, the SICz on recombinant Cz (cruzain) is given as 0.13.

The term IC50 denotes the point on the concentration scale where inhibition reaches its midpoint. In the case of `C/C(=N\NC(N)=S)c1cccc(Cl)c1` [Compound S1i, (E)-2-(1-(3-Chlorophenyl)ethylidene)hydrazine-1-carbothioamide], the viability at 48 h, 10 µM in [3] (setting [8]) was over 100%. The CC50 at 48 h in data set [3] (setting [8]) was over 10 µM. The inhibition at 10 µM is 97.2% in [4] (10 µM); 56.2% in the data set with T. cruzi CAI/72 strain [6] (Trypanosoma cruzi, 10 µM, C2C12 infected cells, read-out: Anti-Tc CAI/72 activity (%)); over 85% at recombinant Cz (cruzain). Further, the IC50 is 0.058 µM and 0.12 µM in [4] (each of two biological replicates in triplicate, read-out: IC50 hCatL, single biological replicate (Figure 4)); 0.0894 ± 0.0314 µM in data set [4] (mean of two experiments in triplicate (n = 6) ± SEM, read-out: IC50 hCatL); 29.9 µM in data set [5]; 0.002 µM and 0.003 µM at recombinant Cz (cruzain) (each of two biological replicates in triplicate, read-out: IC50 Cz, single biological replicate (Figure 3)); 0.0025 ± 0.00051 µM on recombinant Cz (cruzain) (mean of two experiments in triplicate (n = 6) ± SEM, read-out: IC50 Cz). Further, the EC50 in the data set with T. cruzi CAI/72 strain [6] (Trypanosoma cruzi, intracellular amastigotes in C2C12 cells, 48 h, mean of three experiments in triplicate (n = 9) ± SD, read-out: EC50 Tc CAI/72) is about 10 µM. Moreover, the “Cz inhibition (%)” value at recombinant Cz (cruzain) came to 100.00%. For the same compound, the results for the SICz at recombinant Cz (cruzain) and on recombinant Cz (cruzain) (listed as S 1i) were 35.76 and 36, respectively.

Regarding `C/C(=N\NC(N)=[Se])c1ccc(C#N)cc1` [Se1e, (E)-2-(1-(4-Cyanophenyl)ethylidene)hydrazine-1-carboselenoamide], the viability at 48 h, 10 µM in data set [3] was over 100%. Moreover, the inhibition at 10 µM with T. cruzi CAI/72 strain [6] (Trypanosoma cruzi, C2C12, read-out: Anti-Tc CAI/72 activity (%)) was found to be 57.1%; on recombinant Cz (cruzain), 104%. Also, the “stability of the compound” value in data set [7] is listed as “stability problems; also recorded: lack of stability”.

With `Cc1c(C)c2c(c(C)c1O)CCC(C)(C(=O)O)O2` (stereo not shown) [TRO, trolox], the “Percentage of inhibited DPPH (2 h)” value in data set [1] (0,03 mg/ml) is recorded as 79,33 ± 0,88%; in data set [1] (0,06 mg/ml) it was 79,67 ± 0,67%; in data set [1] (0,015 mg/ml), 79,33 ± 1,33%. Also, in [1] (0.015 mg/mL), the “time to reach the plateau of the DPPH kinetic curve” value stood at 5 min. The “percentage of activity in the DPPH kinetic curve” value in data set [1] (0.015 mg/mL, kinetic curve over 2 h) was 80%.

In the case of “(E)-2-(1-(4-Cyanophenyl)ethylidene)hydrazine-1-carbothioamide [Compound S1e]”, the “C2C12 viability (%)” value in the data set on C2C12 cells was over 100%. For the same compound, the inhibition in the data set with T. cruzi CAI/72 strain [6] (setting [9]) worked out at 31.6%. Besides, the “Cz inhibition (%)” value on recombinant Cz (cruzain) is recorded as 98.77%.

Take “(E)-2-(1-((3r,5r,7r)-Adamantan-1-yl)ethylidene)hydrazine-1-carbothioamide [Compound S1q]”: the “C2C12 viability (%)” value with C2C12 cells is over 100%. For the same compound, the inhibition in the data set with T. cruzi CAI/72 strain [6] (setting [9]) stood at 38.7%. Moreover, the “Cz inhibition (%)” value on recombinant Cz (cruzain) came to 5.06%.

On to “(E)-2-(1-(Thiophen-3-yl)ethylidene)hydrazine-1-carbothioamide [Compound S1l]”, for which the “C2C12 viability (%)” value in the data set on C2C12 cells is over 100%. For the same compound, in the data set with T. cruzi CAI/72 strain [6] (setting [9]), the inhibition turned out to be 10.9%. For the same compound, at recombinant Cz (cruzain), the “Cz inhibition (%)” value is reported as 62.83%.

The record behind these values is PMC12320831, “Synthesis and Biological Evaluation of New Chalcogen Semicarbazone (S, Se) and Their Azole Derivatives against Chagas Disease” (Journal of Medicinal Chemistry, 2024).
